Measured values as given in patent US20230278996A1, “YKL-40 INHIBITORS AND THEIR THERAPEUTIC APPLICATIONS” (Molecure S.A., priority 2022, published 2023).
Structures can show the parent of a compound that is named as a salt.

biological target: YKL-40 (Homo sapiens (Human), UniProt P36222); test: YKL-40:4 assay, competitive chitin binding site AlphaScreen; settings: competition with biotinylated compound 4 (20 nM), YKL-40-histag 2.5 nM
Sequence (P36222 22-383): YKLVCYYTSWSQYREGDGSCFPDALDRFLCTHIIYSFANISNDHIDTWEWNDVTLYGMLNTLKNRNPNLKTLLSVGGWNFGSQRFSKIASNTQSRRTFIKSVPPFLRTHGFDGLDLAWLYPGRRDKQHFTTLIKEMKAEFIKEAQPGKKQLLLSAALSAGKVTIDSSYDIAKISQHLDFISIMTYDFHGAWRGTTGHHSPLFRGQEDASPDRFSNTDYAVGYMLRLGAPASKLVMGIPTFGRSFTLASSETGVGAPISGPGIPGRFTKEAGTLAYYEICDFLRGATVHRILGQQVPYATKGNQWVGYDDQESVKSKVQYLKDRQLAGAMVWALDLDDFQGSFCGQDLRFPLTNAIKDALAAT

Row | SMILES | IC50 [µM]
1 | CO[C@@H]1CCN(C2CCN(c3ccccn3)CC2)[C@@H](Cc2ccc(Cl)cc2)C1 [compound 108, (2S,4R)-2-(4-chlorobenzyl)-4-methoxy-1′-(pyridin-2-yl)-1,4′-bipiperidine 2,2,2-trifluoroacetate] | < 0.1
2 | CC1CC(N2C[C@H](C)OC[C@@H]2Cc2ccc(Cl)cc2)CCN1c1cc(Cl)ccn1 (single isomer, unassigned) [Example 31, 2,2,2-trifluoroacetate] | 1 to 10
3 | C[C@H]1CN(C2CCN(c3ccncc3)CC2)[C@@H](Cc2ccc(Cl)cc2)CO1 [Example 28, (2S,5S)-5-(4-chlorobenzyl)-2-methyl-4-(1-(pyridin-4-yl)piperidin-4-yl)morpholine 2,2,2-trifluoroacetate] | > 100
4 | CC1CC(N2C[C@H](C)OC[C@@H]2Cc2ccc(Cl)cc2)CCN1c1cc(Cl)ccn1 (single isomer, unassigned) [Example 32, 2,2,2-trifluoroacetate] | < 0.1
5 | CO[C@@H]1CN(c2cc(Cl)ccn2)CC[C@@H]1N1C[C@H](C)OC[C@@H]1Cc1ccc(Cl)cc1 [compound 59, (2S,5S)-5-(4-chlorobenzyl)-4-((3R,4S)-1-(4-chloropyridin-2-yl)-3-methoxypiperidin-4-yl)-2-methylmorpholine 2,2,2-trifluoroacetate] | 1 to 10
6 | C[C@H]1CN(C2CCN(c3cccc(Cl)n3)CC2)[C@@H](Cc2ccc(Cl)cc2)CO1 [Example 14, (2S,5S)-5-(4-chlorobenzyl)-4-(1-(6-chloropyridin-2-yl)piperidin-4-yl)-2-methylmorpholine 2,2,2-trifluoroacetate] | 1 to 10
7 | C[C@H]1CN(C2CCN(C(=O)OC(C)(C)C)CC2)[C@@H](Cc2ccc(Cl)cc2)CO1 [Example 8d, tert-butyl 4-((2S,5S)-5-(4-chlorobenzyl)-2-methylmorpholino)piperidine-1-carboxylate] | > 100
8 | Clc1ccc(C[C@H]2CN3CCC[C@H]3CN2C2CCN(c3ccccn3)CC2)cc1 [Example 38, (3S,8aS)-3-(4-chlorobenzyl)-2-(1-(pyridin-2-yl)piperidin-4-yl)octahydropyrrolo[1,2-α]pyrazine 2,2,2-trifluoroacetate] | < 0.1
9 | C[C@H]1CN(C2CCN(c3cc(C(N)=O)ccn3)CC2)[C@@H](Cc2ccc(Cl)cc2)CO1 [compound 132, 2-(4-((2S,5S)-5-(4-chlorobenzyl)-2-methylmorpholino)piperidin-1-yl)isonicotinamide 2,2,2-trifluoroacetate] | > 100
10 | Cc1cccnc1N1CCC(N2C[C@H](C)OC[C@@H]2Cc2ccc(Cl)cc2)CC1 [Example 16, (2S,5S)-5-(4-chlorobenzyl)-2-methyl-4-(1-(3-methylpyridin-2-yl)piperidin-4-yl)morpholine 2,2,2-trifluoroacetate] | > 100
11 | C[C@H]1CN(C2CCN(c3ncc(F)cc3F)CC2)[C@@H](Cc2ccc(Cl)cc2)CO1 [Example 25, (2S,5S)-5-(4-chlorobenzyl)-4-(1-(3,5-difluoropyridin-2-yl)piperidin-4-yl)-2-methylmorpholine 2,2,2-trifluoroacetate] | > 100
12 | CC(C)C[C@H]1CN(C2CCN(c3ccccn3)CC2)[C@@H](Cc2ccc(Cl)cc2)CN1C(=O)OC(C)(C)C [Example 2e, tert-butyl (2S,5S)-5-(4-chlorobenzyl)-2-isobutyl-4-(1-(pyridin-2-yl)piperidin-4-yl)piperazine-1-carboxylate] | > 100
13 | C[C@H]1CN(C2CCN(c3ncc(F)cn3)CC2)[C@@H](Cc2ccc(Cl)cc2)CO1 [compound 46, (2S,5S)-5-(4-chlorobenzyl)-4-(1-(5-fluoropyrimidin-2-yl)piperidin-4-yl)-2-methylmorpholine 2,2,2-trifluoroacetate] | 1 to 10
14 | COC1(C)CCN(C2CCN(c3ccccn3)CC2)[C@@H](Cc2ccc(Cl)cc2)C1 (stereo partly drawn) [compound 91, (2S)-2-(4-chlorobenzyl)-4-methoxy-4-methyl-1′-(pyridin-2-yl)-1,4′-bipiperidine 2,2,2-trifluoroacetate] | < 0.1
15 | CO[C@H]1CCN(C2CCN(c3ccccn3)CC2)[C@@H](Cc2ccc(Cl)cc2)C1 [compound 109, (2S,4S)-2-(4-chlorobenzyl)-4-methoxy-1′-(pyridin-2-yl)-1,4′-bipiperidine 2,2,2-trifluoroacetate] | 0.1 to 1
16 | O[C@H]1CCN(C[C@H]2CN(C3CCN(c4ncccn4)CC3)[C@@H](Cc3ccc(Cl)cc3)CO2)C1 [compound 74, (S)-1-(((2S,5S)-5-(4-chlorobenzyl)-4-(1-(pyrimidin-2-yl)piperidin-4-yl)morpholin-2-yl)methyl)pyrrolidin-3-ol 2,2,2-trifluoroacetate] | 1 to 10
17 | COc1ccnc(N2CCC(N3C[C@H](C)OC[C@@H]3Cc3ccc(Cl)cc3)CC2)c1 [Example 29, (2S,5S)-5-(4-chlorobenzyl)-4-(1-(4-methoxypyridin-2-yl)piperidin-4-yl)-2-methylmorpholine 2,2,2-trifluoroacetate] | 0.1 to 1

The next lines start with the values.

Row | IC50 [µM] | SMILES
18 | > 100 | COC(=O)c1ccnc(F)c1N1CCC(N2C[C@H](C)OC[C@@H]2Cc2ccc(Cl)cc2)CC1 [compound 121, methyl 3-(4-((2S,5S)-5-(4-chlorobenzyl)-2-methylmorpholino)piperidin-1-yl)-2-fluoroisonicotinate]
19 | 1 to 10 | Cc1csc(N2CCC(N3C[C@H](C)OC[C@@H]3Cc3ccc(Cl)cc3)CC2)n1 [compound 184, (2S,5S)-5-(4-chlorobenzyl)-2-methyl-4-(1-(4-methylthiazol-2-yl)piperidin-4-yl)morpholine 2,2,2-trifluoroacetate]
20 | > 100 | C[C@H]1CN(C2CCN(c3ncnc(N)n3)CC2)[C@@H](Cc2ccc(Cl)cc2)CO1 [compound 174, 4-(4-((2S,5S)-5-(4-chlorobenzyl)-2-methylmorpholino)piperidin-1-yl)-1,3,5-triazin-2-amine 2,2,2-trifluoroacetate]
21 | 10 to 100 | C[C@H]1CN(C2CCN(c3ccnc(Br)c3)CC2)[C@@H](Cc2ccc(Cl)cc2)CO1 [compound 156, (2S,5S)-4-(1-(2-bromopyridin-4-yl)piperidin-4-yl)-5-(4-chlorobenzyl)-2-methylmorpholine hydrochloride]
22 | > 100 | C[C@H]1CN(C2CCN(c3nnn[nH]3)CC2)[C@@H](Cc2ccc(Cl)cc2)CO1 [compound 166, (2S,5S)-4-(1-(1H-tetrazol-5-yl)piperidin-4-yl)-5-(4-chlorobenzyl)-2-methylmorpholine 2,2,2-trifluoroacetate]
23 | > 100 | C[C@H]1CN(C2CCN(c3ncnc(O)n3)CC2)[C@@H](Cc2ccc(Cl)cc2)CO1 [compound 170, 4-(4-((2S,5S)-5-(4-chlorobenzyl)-2-methylmorpholino)piperidin-1-yl)-1,3,5-triazin-2-ol 2,2,2-trifluoroacetate]
24 | > 100 | COc1cccnc1N1CCC(N2C[C@H](C)OC[C@@H]2Cc2ccc(Cl)cc2)CC1 [compound 162, (2S,5S)-5-(4-chlorobenzyl)-4-(1-(3-methoxypyridin-2-yl)piperidin-4-yl)-2-methylmorpholine 2,2,2-trifluoroacetate]
25 | > 100 | C[C@H]1CN(C2CCN(c3ccccc3F)CC2)[C@@H](Cc2ccc(Cl)cc2)CO1 [compound 126, (2S,5S)-5-(4-chlorobenzyl)-4-(1-(2-fluorophenyl)piperidin-4-yl)-2-methylmorpholine 2,2,2-trifluoroacetate]
26 | < 0.1 | CN1CCN(C[C@H]2CN(C3CCN(c4cc(Cl)ccn4)CC3)[C@@H](Cc3ccc(Cl)cc3)CN2C)CC1 [compound 83, (2S,5S)-2-(4-chlorobenzyl)-1-(1-(4-chloropyridin-2-yl)piperidin-4-yl)-4-methyl-5-((4-methylpiperazin-1-yl)methyl)piperazine 2,2,2-trifluoroacetate]
27 | > 100 | C[C@H]1CN(C2CCN(c3ncccc3O)CC2)[C@@H](Cc2ccc(Cl)cc2)CO1 [compound 160, 2-(4-((2S,5S)-5-(4-chlorobenzyl)-2-methylmorpholino)piperidin-1-yl)pyridin-3-ol 2,2,2-trifluoroacetate]
28 | > 100 | COC(=O)c1ccnc(N2CCC(N3C[C@H](C)OC[C@@H]3Cc3ccc(Cl)cc3)CC2)c1 [compound 124, methyl 2-(4-((2S,5S)-5-(4-chlorobenzyl)-2-methylmorpholino)piperidin-1-yl)isonicotinate]
29 | > 100 | C[C@H]1CN(C2CCN(c3ncccc3CO)CC2)[C@@H](Cc2ccc(Cl)cc2)CO1 [compound 120, (2-(4-((2S,5S)-5-(4-chlorobenzyl)-2-methylmorpholino)piperidin-1-yl)pyridin-3-yl)methanol 2,2,2-trifluoroacetate]
30 | > 100 | O=C1COC[C@H](Cc2ccc(Cl)cc2)N1C1CCN(c2ccccn2)CC1 [compound 147, (S)-5-(4-chlorobenzyl)-4-(1-(pyridin-2-yl)piperidin-4-yl)morpholin-3-one hydrochloride]
31 | > 100 | C[C@H]1CN(C2CCN(c3c(C(=O)O)ccnc3F)CC2)[C@@H](Cc2ccc(Cl)cc2)CO1 [compound 129, 3-(4-((2S,5S)-5-(4-chlorobenzyl)-2-methylmorpholino)piperidin-1-yl)-2-fluoroisonicotinic acid]
32 | > 100 | C[C@H]1CN(C2CCN(c3ncnc(C#N)n3)CC2)[C@@H](Cc2ccc(Cl)cc2)CO1 [compound 173, 4-(4-((2S,5S)-5-(4-chlorobenzyl)-2-methylmorpholino)piperidin-1-yl)-1,3,5-triazine-2-carbonitrile 2,2,2-trifluoroacetate]
33 | 10 to 100 | C[C@H]1CN(C2CCN(c3cccc4nccn34)CC2)[C@@H](Cc2ccc(Cl)cc2)CO1 [compound 157, (2S,5S)-5-(4-chlorobenzyl)-4-(1-(imidazo[1,2-α]pyridin-5-yl)piperidin-4-yl)-2-methylmorpholine hydrochloride]
34 | 0.1 to 1 | C[C@H]1CN(C2CCN(c3cc(Br)ccn3)CC2)[C@@H](Cc2ccc(Cl)cc2)CO1 [compound 113, (2S,5S)-4-(1-(4-bromopyridin-2-yl)piperidin-4-yl)-5-(4-chlorobenzyl)-2-methylmorpholine 2,2,2-trifluoroacetate]
35 | > 100 | Cc1nnc(N2CCC(N3C[C@H](C)OC[C@@H]3Cc3ccc(Cl)cc3)CC2)s1 [compound 182, (2S,5S)-5-(4-chlorobenzyl)-2-methyl-4-(1-(5-methyl-1,3,4-thiadiazol-2-yl)piperidin-4-yl)morpholine 2,2,2-trifluoroacetate]
